As a reminder, the melting point is the temperature, or range, at which the solid turns liquid.

Molecule `COc1cc(C)c2c(Oc3cccc(C(F)(F)F)c3)c(OC)cc(NC(C)CCCN3C(=O)c4ccccc4C3=O)c2n1` (configuration not stated) had a melting point of 117 to 119 °C. The same measure for `CCc1nc(OCc2ccc(Oc3ccc(C(F)(F)F)cc3)cc2)c(C)c(=O)n1CC`: 93.8 to 95.7 °C; for `C[Si](C)(C)C#Cc1cnc(C(F)(F)F)nc1`: 75.5 to 76 °C. The value for `NC(=O)c1sc2nccc(N3CCCN(c4ccc(OCc5ccccc5)cc4)CC3)c2c1N` was 211 to 213 °C; that for `C=C[C@]1(C)CCc2c(C)c(OCc3ccccc3)c(C)c(C)c2O1` was 63 to 66 °C; that for `CCCCc1nc(Cl)c(CC=CO)n1Cc1ccc(NC(=O)c2ccccc2C(=O)O)cc1` was 150 to 151 °C. The molecule `CS(=O)(=O)C(c1ccc(Cl)cc1)c1ccc(Cl)cc1` had a melting point of 93 to 94.5 °C.

On to `FC(F)(F)c1cccc(-c2ccn3ncnc3n2)c1`, for which the melting point was in the range of 201 to 202 °C. `CC12CCC3C(CC=C4CC(O[Si](C)(C)C(C)(C)C)CCC43C)C1CCC2=O` (configuration not stated) had a melting point of 146 to 148 °C. The value for `O=c1[nH]c(N2CCN(CCO)CC2)cc2c(F)cccc12` was 207 to 208 °C. The value for `CCc1cnn(CC(=O)O)c1OCCn1cc(C(=O)NCc2ccc(C(F)(F)F)cc2)c(OC(C)C)n1` was 183 to 184 °C; that for `CC(O)CCCOc1ccc2nc3[nH]c(=O)[nH]c3cc2c1` (configuration not stated) was 301 to 303 °C; that for `N#CSc1ccc(-c2nc3ccc(N)c(SC#N)c3nc2-c2ccco2)o1` was 185 to 187 °C. The same measure for `O=c1ccc2ccc(OCCCN3CCCN(c4cccc(Cl)c4Cl)CC3)cc2[nH]1`: 117 to 118 °C. For `CCCSc1nc(NC2CC2c2cccc(N)c2)c2nnn(C3CC(O)C(O)C3O)c2n1` (configuration not stated), the melting point lay within 105 to 107 °C.

As for `CSc1ccc(N2CCOCC2)c(NC(=N)C(C)C)c1`, the melting point turned out to be 155 °C. `CCOC(=O)C1=Cc2cc(C=NO)ccc2OC1C(F)(F)F` (configuration not stated): the melting point was 113 to 116 °C.

`Fc1cc2c(Nc3ccc(Cl)c(Br)c3)ncnc2cn1`: the melting point is 271 to 275 °C. Molecule `CCn1c(C)nc2cc(C(F)(F)F)cc(N)c21` had a melting point of 144 to 145 °C. The value for `CCOC(=O)c1ccccc1Nc1ccc(OC)cc1C` was 42 to 43 °C. In turn, `COc1ccc(COCc2nnc3n2-c2ccc(Cl)cc2C(c2ccccc2)=NC3)cc1` gave a melting point of 157 to 159 °C. As for `CN(C)S(=O)(=O)c1cc(C(=O)O)cc(N2CCCC2)c1Oc1ccccc1`, the melting point fell in the range of 214 to 215 °C. The molecule `COc1ccccc1NC(=O)Nc1nc(Oc2ccc3ccccc3c2)nc(N(CCC(=O)O)Cc2cccc(C)c2)n1` registered a melting point of 105 to 125 °C. For `CN(c1ccc([N+](=O)[O-])cc1C(F)(F)F)c1c(Cl)c(Cl)nc(Cl)c1Cl`, the melting point lay in the range of 152 to 155 °C. Turning to `CCOC(=O)c1ncn(-c2nccs2)c1S(N)(=O)=O`, the melting point was in the range of 84 to 85 °C. As for `COC(=O)Nc1cc(-c2nc(-c3ccco3)no2)ccc1Cl`, the melting point lay within 200 to 201 °C. The value for `COc1cc(C(=O)NS(=O)(=O)c2ccccc2C)ccc1Cc1cn(C)c2ccc(C(=O)O)cc12` was 255 to 257 °C; that for `COCc1cc2c(s1)CCc1cc(=O)n(-c3ccc(C)cc3)nc1-2` was 132 to 133 °C; that for `COc1ccc2sc3nc(CO)cn3c2c1` was 189 to 190 °C. The same measure for `CCCn1nc(C(N)=O)cc1CC`: 105 to 106 °C; for `CC(=O)N1CCN(N=Cc2ccc(F)cc2)CC1`: 88 to 90 °C; for `CC(C)N1CCC(=C2c3ccn(C)c3CCn3ccnc32)CC1`: 178 °C. The value for `CN1Cc2cc(Cl)ccc2C(=O)c2cc(CC(=O)O)ccc21` was 191 to 194 °C.

`O=C(O)CCc1cc2cc(Cl)ccc2n1S(=O)(=O)c1ccc(Cl)cc1`: the melting point lay within 158 to 160 °C. `CC(C)(C)OC(=O)N1CC=C(c2ccc(NCc3ccccc3)cc2)CC1` registered a melting point of 120 to 121 °C. Take `C[C@H]1C[C@@H](Oc2cccc(NC(=O)c3ccc(F)cc3Cl)c2)CCN1C` (relative stereo): the melting point was found to be 152 °C. The value for `O=c1c(Cl)c2sc3ccccc3nc-2c2ccccc12` was 230 to 231 °C. `CC(C)c1oc(-c2ccccc2)c(-c2ccc(F)cc2)c1C=CC=O`: the melting point is 98 to 100 °C. The value for `Cc1cc(-c2ncc(OC3SCC(O)C(O)C3O)cc2F)ccn1` (configuration not stated) was 143 °C. The value for `O=C1C(=O)c2ccc(-c3ccccc3C(F)(F)F)cc2C2=C1SCC1(CCNCC1)O2` was 125 to 127 °C; that for `OC(Cn1cncn1)(c1ccc(F)cc1)c1ccccc1Cl` (configuration not stated) was 115 to 116 °C.

Molecule `C=CCc1cc2c(c(CC=C)c1O)N(CC=C(C)C)C(=O)CC2` yielded a melting point of 94 to 96 °C. For the molecule `COC(=O)c1cc(-c2c(OC)cccc2OC)n(-c2cc(C(=O)O)ccc2C)n1`, the melting point was determined as 189 °C. Turning to `Cc1nc(CCCCCCC(=O)O)c(C(=O)O)s1`, the melting point fell in the range of 147 to 149 °C. Molecule `COC(=O)C(C)N(C(=O)CF)c1c(C)cccc1Cl` (configuration not stated) had a melting point of 101 to 103 °C. In turn, `CSC(CC(=O)O)c1ccccc1` (configuration not stated) showed a melting point of 75 to 77 °C. The value for `CCOC(=O)C(NC(C)=O)c1csc(NC(C)=O)n1` (configuration not stated) was 149 to 150 °C. As for `O=S1N=C(NCCCN(Cc2ccccc2)c2ccccn2)C(NCc2ccncc2)=N1` (configuration not stated), the melting point was in the range of 140 to 142 °C. The same measure for `CCCOc1ccc(S(=O)(=O)N2CC[C@@H](N(C)C)C2)cc1-c1nc2cc3ncn(Cc4ccc(F)cc4)c3cc2c(=O)[nH]1`: 223 to 225 °C. The same measure for `NCCCCCCNc1nsc2nccn12`: 81 to 82 °C; for `N#Cc1ccc(NC(=S)NCc2cccnc2)cc1`: 181 °C.

For the molecule `CCC(=O)Nc1c(C(O)(C(F)(F)F)C(F)(F)F)ccc2ccccc12`, the melting point fell in the range of 118 to 119 °C.

Take `C=Cc1ccc(-c2ncccc2S(=O)(=O)Nc2ncc(C)nc2OC)cc1`: the melting point was 110 to 112 °C.

As to `C[C@@H](n1cnc2cc(-c3ccc(C=NNO)cc3)sc2c1=O)[C@](O)(Cn1cncn1)c1ccc(F)cc1F`, the melting point is 246 to 247 °C. The value for `CCOC(=O)C1CC(=O)c2c(OC)ccc(OC)c2C1` (configuration not stated) was 96 to 98 °C; that for `CC(=O)C(O)C1OC(n2cnc3c(NC4CCCc5ccccc54)ncnc32)C(O)C1O` (configuration not stated) was 87 to 97 °C; that for `CC(C)N(CCN1C(=O)C(=O)c2cc(Cl)ccc21)C(C)C` was 99 to 101 °C.

With `Nc1nc(=O)n(C2OC(CO)C(O)C2F)cc1Br` (configuration not stated), the melting point is 201 to 202 °C. Molecule `COC(=O)C1=CN(c2ccc(O)cc2)C(C2CC=CCC2)CC1=O` (configuration not stated) yielded a melting point of 155 to 157 °C. The value for `O=C1c2ccccc2C(=O)N1CC1CN(Cc2ccccc2)CCN1Cc1ccccc1` (configuration not stated) was 124 °C; that for `O=C(NC(Cc1ccc(OCc2ccccc2)cc1)C(=O)NC1C(C(=O)O)OC(n2cnc3c(NC(=O)c4ccccc4)ncnc32)C1O)OCc1ccccc1` (configuration not stated) was 150 to 155 °C; that for `CC(C)(C)c1cc(C2SCC(=O)N2CCCBr)cc(C(C)(C)C)c1O` (configuration not stated) was 130 to 131 °C.

(Values after a melting point compilation (Tetko et al.; mined from patent text by program, amines drawn as free bases though some values may be those of a salt).)
